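Method: 48-hour compound exposure of cells in 96-well plates, five concentrations, linear interpolation of endpoints. The concentration for 50% growth inhibition is given as GI50.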 The source made the active and inactive calls. No stated cut-off is given here; in the data, active = GI50 up to about 1.1 µM and inactive = higher.
How the values were obtained:
Test in all cases: inhibition of tumour cell growth, NCI panel, 48 h
MDA-MB-231 = test system: MDA-MB-231
SR = test system: SR
NCI-H522 = test system: NCI-H522
SF-295 = test system: SF-295
HOP-62 = test system: HOP-62
NCI/ADR-RES = test system: NCI/ADR-RES
SK-MEL-5 = test system: SK-MEL-5
SN12C = test system: SN12C
ACHN = test system: ACHN
NCI-H226 = test system: NCI-H226
UACC-62 = test system: UACC-62
UACC-257 = test system: UACC-257
HOP-92 = test system: HOP-92
TK-10 = test system: TK-10
CCRF-CEM = test system: CCRF-CEM
K562 = test system: K562
T47D = test system: T47D
SNB-75 = test system: SNB-75
SK-OV-3 = test system: SK-OV-3
KM12 = test system: KM12
HCC 2998 = test system: HCC 2998
PC-3 = test system: PC-3
SNB-19 = test system: SNB-19
MOLT-4 = test system: MOLT-4
HT-29 = test system: HT-29
786-0 = test system: 786-0
SF-268 = test system: SF-268
SK-MEL-28 = test system: SK-MEL-28
U-251 = test system: U-251
IGROV-1 = test system: IGROV-1
M14 = test system: M14
A498 = test system: A498
RPMI-8226 = test system: RPMI-8226
NCI-H23 = test system: NCI-H23
BT-549 = test system: BT-549
Hs-578T = test system: Hs-578T
MDA-MB-435 = test system: MDA-MB-435
Malme-3M = test system: Malme-3M
OVCAR-5 = test system: OVCAR-5
CAKI-1 = test system: CAKI-1
MDA-N = test system: MDA-N
NCI-H460 = test system: NCI-H460
HCT-15 = test system: HCT-15
A549 = test system: A549
OVCAR-8 = test system: OVCAR-8
COLO 205 = test system: COLO 205
OVCAR-4 = test system: OVCAR-4
SF-539 = test system: SF-539
HL-60 = test system: HL-60
HCT-116 = test system: HCT-116
SK-MEL-2 = test system: SK-MEL-2
EKVX = test system: EKVX
MCF7 = test system: MCF7
DU-145 = test system: DU-145
SW-620 = test system: SW-620
LOX IMVI = test system: LOX IMVI
OVCAR-3 = test system: OVCAR-3
UO-31 = test system: UO-31
RXF 393 = test system: RXF 393

## O=C1CC(c2cccc([N+](=O)[O-])c2)C2(C(=O)NC(=S)NC2=O)C(c2cccc([N+](=O)[O-])c2)C1 (stereo unspecified)
MDA-MB-231
  GI50: 16.6 µM (inactive)
SR
  GI50: 49.4 µM (inactive)
NCI-H522
  GI50: 30 µM (inactive)
SF-295
  GI50: 34 µM (inactive)
HOP-62
  GI50: 30.3 µM (inactive)
NCI/ADR-RES
  GI50: > 100 µM (inactive)
SK-MEL-5
  GI50: 82.2 µM (inactive)
SN12C
  GI50: 19.9 µM (inactive)
ACHN
  GI50: 72.1 µM (inactive)
NCI-H226
  GI50: 21 µM (inactive)
UACC-62
  GI50: 23.2 µM (inactive)
UACC-257
  GI50: 89.7 µM (inactive)
HOP-92
  GI50: 28.2 µM (inactive)
TK-10
  GI50: 13.9 µM (inactive)
CCRF-CEM
  GI50: 27.6 µM (inactive)
K562
  GI50: 52 µM (inactive)
T47D
  GI50: 81.3 µM (inactive)
SNB-75
  GI50: 43.4 µM (inactive)
SK-OV-3
  GI50: 32.7 µM (inactive)
KM12
  GI50: 26.6 µM (inactive)
HCC 2998
  GI50: 20.2 µM (inactive)
PC-3
  GI50: 51.6 µM (inactive)
SNB-19
  GI50: 21.8 µM (inactive)
MOLT-4
  GI50: 66.4 µM (inactive)
HT-29
  GI50: 40.9 µM (inactive)
786-0
  GI50: 34.8 µM (inactive)
SF-268
  GI50: 15.9 µM (inactive)
SK-MEL-28
  GI50: 52.8 µM (inactive)
U-251
  GI50: 26.2 µM (inactive)
IGROV-1
  GI50: 31.3 µM (inactive)
M14
  GI50: 21.9 µM (inactive)
A498
  GI50: > 100 µM (inactive)
RPMI-8226
  GI50: 59.7 µM (inactive)
NCI-H23
  GI50: 29.2 µM (inactive)
BT-549
  GI50: 26.2 µM (inactive)
Hs-578T
  GI50: 22.8 µM (inactive)
MDA-MB-435
  GI50: 23.5 µM (inactive)
Malme-3M
  GI50: 11.6 µM (inactive)
OVCAR-5
  GI50: 39.9 µM (inactive)
CAKI-1
  GI50: 12.9 µM (inactive)
MDA-N
  GI50: 43 µM (inactive)
NCI-H460
  GI50: 35.6 µM (inactive)
HCT-15
  GI50: 25.5 µM
A549
  GI50: 31 µM (inactive)
OVCAR-8
  GI50: 21.2 µM (inactive)
COLO 205
  GI50: 24.4 µM (inactive)
OVCAR-4
  GI50: 37.4 µM (inactive)
SF-539
  GI50: 40.6 µM (inactive)
HL-60
  GI50: 40.3 µM (inactive)
HCT-116
  GI50: 18.7 µM (inactive)
SK-MEL-2
  GI50: 35.9 µM (inactive)
EKVX
  GI50: 20.4 µM (inactive)
MCF7
  GI50: 26.8 µM (inactive)
DU-145
  GI50: 34.1 µM (inactive)
SW-620
  GI50: 50.7 µM (inactive)
LOX IMVI
  GI50: 16.5 µM (inactive)
OVCAR-3
  GI50: 35.2 µM (inactive)
UO-31
  GI50: 47.2 µM (inactive)

## COc1ccc(N2CCOCC2)cc1
MDA-MB-231
  GI50: > 100 µM (inactive)
SR
  GI50: > 100 µM (inactive)
NCI-H522
  GI50: > 100 µM (inactive)
SF-295
  GI50: > 100 µM (inactive)
HOP-62
  GI50: > 100 µM (inactive)
NCI/ADR-RES
  GI50: > 100 µM (inactive)
SK-MEL-5
  GI50: > 100 µM (inactive)
SN12C
  GI50: > 100 µM (inactive)
ACHN
  GI50: > 100 µM (inactive)
NCI-H226
  GI50: > 100 µM (inactive)
UACC-62
  GI50: > 100 µM (inactive)
UACC-257
  GI50: > 100 µM (inactive)
HOP-92
  GI50: > 100 µM (inactive)
TK-10
  GI50: > 100 µM (inactive)
CCRF-CEM
  GI50: > 100 µM (inactive)
K562
  GI50: > 100 µM (inactive)
T47D
  GI50: > 100 µM (inactive)
SNB-75
  GI50: > 100 µM (inactive)
SK-OV-3
  GI50: > 100 µM (inactive)
KM12
  GI50: > 100 µM (inactive)
HCC 2998
  GI50: > 100 µM (inactive)
PC-3
  GI50: > 100 µM (inactive)
SNB-19
  GI50: > 100 µM (inactive)
MOLT-4
  GI50: > 100 µM (inactive)
HT-29
  GI50: > 100 µM (inactive)
786-0
  GI50: > 100 µM (inactive)
SF-268
  GI50: > 100 µM (inactive)
SK-MEL-28
  GI50: > 100 µM (inactive)
U-251
  GI50: > 100 µM (inactive)
IGROV-1
  GI50: > 100 µM (inactive)
M14
  GI50: > 100 µM (inactive)
A498
  GI50: > 100 µM (inactive)
RPMI-8226
  GI50: > 100 µM (inactive)
NCI-H23
  GI50: > 100 µM (inactive)
BT-549
  GI50: > 100 µM (inactive)
Hs-578T
  GI50: > 100 µM (inactive)
MDA-MB-435
  GI50: > 100 µM (inactive)
Malme-3M
  GI50: > 100 µM (inactive)
OVCAR-5
  GI50: > 100 µM (inactive)
CAKI-1
  GI50: > 100 µM (inactive)
MDA-N
  GI50: > 100 µM (inactive)
NCI-H460
  GI50: > 100 µM (inactive)
HCT-15
  GI50: > 100 µM
A549
  GI50: > 100 µM (inactive)
OVCAR-8
  GI50: > 100 µM (inactive)
COLO 205
  GI50: > 100 µM (inactive)
OVCAR-4
  GI50: > 100 µM (inactive)
SF-539
  GI50: > 100 µM (inactive)
HL-60
  GI50: > 100 µM (inactive)
HCT-116
  GI50: > 100 µM (inactive)
SK-MEL-2
  GI50: > 100 µM (inactive)
EKVX
  GI50: > 100 µM (inactive)
MCF7
  GI50: > 100 µM (inactive)
DU-145
  GI50: > 100 µM (inactive)
SW-620
  GI50: > 100 µM (inactive)
RXF 393
  GI50: > 100 µM (inactive)
OVCAR-3
  GI50: > 100 µM (inactive)
UO-31
  GI50: > 100 µM (inactive)
